Source: patent US20110224133A1 (University of Southern California, priority 2008, published 2011)
Entries after “also recorded” stand apart in the source; their conditions may differ. Ends that are not written are not given here. Peptide text beside a SMILES is read from it. * marks the point of attachment. Cbz = O=C(OCc1ccccc1)*; CH2F = FC*

What was measured:
Beclin1 = Beclin1 siRNA knockdown in BCBL1 cells; type: cell-based, human
Excerpt: For panel B, BCBL1 cells were transfected with control siRNA or Beclin1 siRNA and treated with or without rapamycin for 5 days.

[1] = test system: KSHV-infected BCBL1 cells; assay: Rapamycin-induced growth suppression and death of BCBL1 cells (cell counts, scanning EM); type: cell-based, human; conditions: 6 days, over 100 dead cells examined
Description: The effect of vFLIP on autophagy was tested in a KSHV-infected BCBL1 cell line.

BCBL1 cells = conditions: 50 μM zVAD
Description: For panels B-C, TREX-BCBL-Vector and TREX-BCBL-vFLIP cells were mock-treated or treated with 50 μM zVAD (B) or 50 nM rapamycin (C) for indicated amounts of time (days). A BC Z2 CS Analyzer was used to determine the cell numbers (left) and cell death levels (as a percentage) at day 6 (right).
Trypan blue staining and a Beckman Coulter Z2 Particle Count and Size analyzer were used to determine cell death (as a percentage) at day 5.

Atg3 [2] = molecular target: T1, Atg3 (Homo sapiens, UniProt Q9NT62); assay: Co-immunoprecipitation and GST pulldown with Atg3 in HEK293T cells; type: binding; conditions: HEK293T cells, 48 hr post-transfection
T1 construct: expressed in transfected cells; host or cells: HEK293T
T1 sequence (Q9NT62 whole entry): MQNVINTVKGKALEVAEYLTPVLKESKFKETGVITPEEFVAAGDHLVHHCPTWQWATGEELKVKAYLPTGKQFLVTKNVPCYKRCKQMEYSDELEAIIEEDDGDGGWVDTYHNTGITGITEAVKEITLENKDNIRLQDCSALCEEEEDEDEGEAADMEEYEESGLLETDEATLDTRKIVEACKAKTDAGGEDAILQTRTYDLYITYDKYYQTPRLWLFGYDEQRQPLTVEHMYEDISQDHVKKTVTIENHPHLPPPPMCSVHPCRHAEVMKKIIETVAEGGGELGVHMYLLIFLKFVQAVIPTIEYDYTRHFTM
Excerpt: (§1) For panel A, at 48 hr post-transfection with Flag-vFLIP and/or GFP-Atg3 (left) or Flag-vFLIP and/or GST-Atg3 (middle), HEK293T cells were used for immunoprecipitation with αFlag, αGFP, or GST pulldown, followed by immunoblotting with the indicated antibodies. For panel A (right), HEK293T cells transfected with FIag-vFLIP were used for immunoprecipitation with mouse IgG or αFlag, followed by immunoblotting with αAtg3. Panel B (top) depicts a schematic diagram of human Atg3. N,N-terminus; FR, flexible region; C, C-terminus. […] Panel C (top) depicts a schematic diagram of KSHV vFLIP. […] For panel F, NIH3T3-Vector and NIH3T3-vFLIP cells were treated with 2 nM rapamycin for 12 hr and used for IP with αAtg3, followed by immunoblotting with αLC3. In panels A-F, whole cell lysates (WCLs) were used for immunoblotting with the indicated antibodies to show expression.
(§2) WCLs were used for immunoblotting with αFlag or αGST. […] WCLs were used for immunoblotting with αFlag or αGST.
(§3) The ability of FLIP to bind to Atg3 was evaluated by co-immunoprecipitation assay. HEK293T cells were transfected with Flag-vFLIP and/or GFP-Atg3 or Flag-vFLIP and/or GST-Atg3, and at 48 hr post-transfection, cells were harvested and lysed in an NP40 buffer supplemented with complete protease inhibitor cocktail (Roche). After pre-clearing with protein A/G agarose beads for 1 hr at 4° C., whole-cell lysates were used for immunoprecipitation with αFlag, αGFP, or GST. Generally, 1-4 μg of the antibody was added to 1 ml of the cell lysate and incubated at 4° C. for 8 to 12 hr. The immunoprecipitates were then washed extensively with a lysis buffer and eluted by boiling them with an SDS loading buffer for 5 min. Following immunoprecipitation, samples were treated to immunoblot using αAtg3 (1:500) (Novus).
(§4) The overall structure of yeast Atg3 has a unique hammer-like shape with the N-terminal and C-terminal regions discretely responsible for Atg7 and Atg8 (equivalent to mammalian LC3) binding, respectively. (Yamada et al. (2007) J. Biol. Chem. 282:8036-8043). Based on the structure of yeast Atg3, human Atg3 deletion mutants fused with a GST mammalian expression vector were constructed: GST-Atg31-93, GST-Atg3193-268, GST-Atg3268-315, and GST-Atg3193-315.

TREX-BCBL-Vector cells [3] = assay: GFP-LC3 puncta autophagy assay in peptide-treated TREX-BCBL cells; conditions: 30 or 50 μM peptide, 12 hr, 2 μM rapamycin as comparison
TREX-BCBL-Vector cells [4] = assay: Cell death (BC Z2 CS analyzer) in peptide-treated TREX-BCBL cells; conditions: identical conditions, 30 or 50 μM peptide
Description: Subsequently, autophagy was quantified as means (±SD) of the combined results from three independent experiments. 2 μM rapamycin treatment was included as a control. For panels B (right), TREX-BCBL-Vector and TREX-BCBL-vFLIP cells were treated with Doxycycline for 24 hr, followed by incubation with 0, 30, or 50 μM of TAT only, the K-α2, or the K-α4 peptide (top), or TAT only, the C-α2, or the C-α4 peptide (bottom) for an additional 12 hr and a BC Z2 CS analyzer used to determine cell death (as a percentage). […] For panel G, various human lymphoma cells were treated with 0, 30, or 50 μM of the K-α2 peptide (left) or the K-α4 peptide (right) for 12 hr and cell death (as a percentage) was determined using a BC Z2 CS Analyzer. For panel H, KSHV-infected BCBL1 cells were incubated with various combinations of rapamycin (25 nM), the K-α2 peptide (20 μM), and the K-α4 peptide (20 μM). A BC Z2 CS Analyzer was used to determine cell numbers (left) and cell death at 6 days (right).
Cells treated with 2 μM rapamycin treatment were included as controls. For panel C, KSHV-infected BCBL1 cells were treated with TAT only, K-α2, K-α2m, K-α4, or K-α4m (30 or 50 μM) for 24 hr. A BC Z2 CS Analyzer was used to determine cell death (as a percentage).

mTor kinase activity = assay: Immunoblot of p70S6K and S6 phosphorylation in BCBL1 cells; type: cell-based, human; conditions: 12 hr, 2 μM rapamycin or 30 μM peptide
Description: WCLs were used for immunoblotting with αp70S6K, αphospho-specific p70S6K, αphospho-specific S6, or αactin. […] WCLs were used for immunoblotting with αFlag or αGST.
Levels of phosphorylation of p70S6K and ribosomal protein S6 in BCBL1 cells were evaluated by immunoblotting with α-p70S6K, αphospho-specific p70S6K, αphospho-specific S6, or αactin.

LC3-II [5] = assay: Immunoblotting with αLC3 of peptide-treated BCBL1 cells; conditions: 30 μM each, 12 hr
Description: For panel E, TREX-BCBL-Vector and TREX-BCBL-vFLIP cells were treated with the K-α and the K-α4 (30 μM each) peptide for 12 hr, followed by immunoblotting with αLC3 and αactin.
The K-α2 and K-α4 peptides contained KSHV vFLIP aa20-29 and aa128-139 regions, respectively, as retro-inverso versions to circumvent the proteolytic degradation (FIG. 10 and FIG. 11A). […] Peptide-treated TREX-BCBL-Vector and TREX-BCBL-vFLIP cells were subjected to immunoblotting with αLC3 and αactin.

[6] = molecular target: T2, GST-Atg3 (human Atg3, full length) (human, UniProt Q9NT62 1-314); assay: GST pulldown from HEK293T cells, immunoblot αFlag
T2 construct: also called GST-tagged hATG3; full-length Atg3; not shown: N-terminal GST tag
T2 sequence (Q9NT62 whole entry): as above

[7] = molecular target: T3, GST-Atg3 193-315 (C-terminal region) (human, UniProt Q9NT62 193-314); assay: GST pulldown with GST-Atg3, Nt and Ct, immunoblot αFlag
T3 construct: range 193-315; also called GST-Atg3 C-terminal region (Ct); not shown: N-terminal GST tag
T3 sequence (Q9NT62 193-314 limits assumed): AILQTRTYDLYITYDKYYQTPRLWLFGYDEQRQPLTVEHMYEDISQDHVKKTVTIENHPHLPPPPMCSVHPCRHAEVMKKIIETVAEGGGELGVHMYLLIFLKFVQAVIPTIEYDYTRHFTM

Atg3 [8] = assay: Co-immunoprecipitation and GST pulldown with Atg3 in HEK293T cells; type: binding, human; conditions: GST-Atg3 deletion mutants, GST pulldown
Excerpt: as §1, §2, §3, §4

LC3-II [9] = assay: Anti-LC3 immunoblotting of starved NIH3T3 cells expressing FLIP; type: cell-based, murine; conditions: starvation, Hank's solution 4 hr
Description: The arrows indicate autophagosomes.
During autophagy, an LC3 precursor (LC3-I) undergoes cleavage and lipidation to yield its processed form (LC3-II) (Mizushima et al. (2008) Nature 451:1069-1075). Immunoblotting was performed with an antibody against LC3 to further measure autophagic activity. […] Polypeptides were resolved by SDS-polyacrylamide gel electrophoresis (PAGE) and transferred to a PVDF membrane (Bio-Rad). […] The proteins were visualized by a chemiluminescence reagent (Pierce) and detected by a Fuji Phosphor Imager. […] Finally, the ability of FLIP to block autophagy in multiple cell types was evaluated.

NIH3T3 cells = assay: GFP-LC3 autophagy assay in NIH3T3 cells expressing FLIP; type: cell-based, murine; conditions: ectopic expression in NIH3T3 cells; Hank's solution 4 hr or 2 μM rapamycin 3 hr

Molecule: 5′AAGAUCCUGGACCGUGUCACC3′ [Beclin1 siRNA]
- endogenous Beclin1 expression (Beclin1): significantly reduced endogenous Beclin1 expression
- rapamycin-induced autophagic death (Beclin1; rapamycin, day 5): attenuated rapamycin-induced autophagic death

Molecule: CO[C@H]1C[C@@H]2CC[C@@H](C)[C@@](O)(O2)C(=O)C(=O)N2CCCC[C@H]2C(=O)O[C@H]([C@H](C)C[C@@H]2CC[C@@H](O)[C@H](OC)C2)CC(=O)[C@H](C)/C=C(\C)[C@@H](O)[C@@H](OC)C(=O)[C@H](C)C[C@H](C)/C=C/C=C/C=C/1C [rapamycin]
- dead cells with characteristics of autophagic death (EM) [1]: approximately 60%

Molecule: COC(=O)CC(NC(=O)C(C)NC(=O)C(NC(=O)OCc1ccccc1)C(C)C)C(=O)CF (stereo not drawn) [zVAD, benzyloxycarbonylvalyl-alanyl-aspartic acid (O-methyl)-fluoro-methylketone] (Cbz-Val-Ala-Asp(OMe)-CH2F; configuration not given here)
- growth suppression and death (BCBL1 cells): effectively induced growth suppression and death of BCBL1 cells

Molecule: EVVLFLLNVF (also: GST fusion; UniProt F5HEZ4 20-29, looked up, fragment) [DED1 α2 helix, α2 region of KSHV vFLIP amino acids 20-29; tested as mammalian GST fusion]
- Atg3 binding (Atg3 [2]): individually sufficient for Atg3 binding

Molecule: QTFLHWVYCMEN [DED2 α4 helix]
- Atg3 binding (Atg3 [2]): individually sufficient for Atg3 binding

Molecule: RRRQRRKKRGY-G (RRRQRRKKRGYG) [HIV-1 TAT, reference compound]
- autophagy induction (GFP-LC3 puncta) (TREX-BCBL-Vector cells [3]): no increase in autophagy
- cell death (in words) (TREX-BCBL-Vector cells [4]): no increase in autophagy nor cell death

Molecule: RRRQRRKKRGY-G-FVNLAAAVVE [K-α2m]
- autophagy induction (GFP-LC3 puncta) (TREX-BCBL-Vector cells [3]): no increase in autophagy
- cell death (in words) (TREX-BCBL-Vector cells [4]): no increase in autophagy nor cell death

Molecule: RRRQRRKKRGY-G-FVNLLFLVVE (RRRQRRKKRGYGFVNLLFLVVE; not fully specified (some residues); also: retro-inverso D-amino acids) [K-α2]
- phosphorylation of p70S6K (mTor kinase activity): marginal reduction
- phosphorylation of ribosomal protein S6 (mTor kinase activity): remained unaffected
- LC3-II level (LC3-II [5]): high amount of LC3-II

Molecule: RRRQRRKKRGY-G-NEMCAAAHAATQ [K-α4m]
- autophagy induction (GFP-LC3 puncta) (TREX-BCBL-Vector cells [3]): no increase in autophagy
- cell death (in words) (TREX-BCBL-Vector cells [4]): no increase in autophagy nor cell death

Molecule: RRRQRRKKRGY-G-NEMCYVWHLFTQ (RRRQRRKKRGYGNEMCYVWHLFTQ; not fully specified (some residues); also: retro-inverso D-amino acids) [K-α4]
- phosphorylation of p70S6K (mTor kinase activity): marginal reduction
- phosphorylation of ribosomal protein S6 (mTor kinase activity): remained unaffected
- LC3-II level (LC3-II [5]): high amount of LC3-II

B1: Flag-KSHV vFLIP DED1 (other)
chain: MATYEVLCEVARKLGTDDREVVLFLLNVFIPQPTLAQLIGALRALKEEGRLTFPLLAECLFRAGRRDLLRDLLHLDPRFLERHLAGTMSY
notes: also called DED1 of KSHV vFLIP
- binding result [6]: binds

B2: Flag-KSHV vFLIP DED2 (other)
chain: FSPYQLTVLHVDGELCARDIRSLIFLSKDTIGSRSTPQTFLHWVYCMENLDLLGPTDVDALMSMLRSLSRVDLQRQVQTLMGLHLSGPSHSQHYRHTP
notes: also called DED2 of KSHV vFLIP
- binding result [6]: binds

B3: Flag-HVS vFLIP (other)
chain: MDLKTTVLHITDSFTEEEMYCLLFLINGCIPRNCNAVKISDLIIETLSKSTQWDICLTQCLYVLRKIELLLNLFQVTKEDVKQSFFTQLQLETHVLTLVNVNNNLTAKDEKRLCFILDQFFPRNVVASSVILCVFSNMLCEMPVLECLCQLKKCLKQIGRSDLAKTV
- binding result [6]: binds
- binding result [7]: binds

B4: HVS vFLIP: viral FLIP of Herpesvirus saimiri (protein)
chain: MDLKTTVLHITDSFTEEEMYCLLFLINGCIPRNCNAVKISDLIIETLSKSTQWDICLTQCLYVLRKIELLLNLFQVTKEDVKQSFFTQLQLETHVLTLVNVNNNLTAKDEKRLCFILDQFFPRNVVASSVILCVFSNMLCEMPVLECLCQLKKCLKQIGRSDLAKTV
modifications: Saimiriine herpesvirus 2
notes: viral FLIP of Herpesvirus saimiri
- Atg3 regions bound (Atg3 deletion mutants) (Atg3 [8]): Atg3 binding patterns similar to KSHV vFLIP
- Atg3 binding (Atg3 [2]): interacted with Atg3 as efficiently as KSHV-vFLIP
- processed LC3-II (LC3-II [9]): little or no processed LC3-II
- suppression of starvation- and rapamycin-induced autophagy (GFP-LC3 puncta) (NIH3T3 cells): strongly suppressed starvation- and rapamycin-induced autophagy; also recorded: had anti-autophagic activity
